Two compounds from patent EP3643310B1, “COMPOSITION FOR REVERSE CONTROL OF CELLULAR SENESCENCE COMPRISING PDK1 INHIBITOR” (Korea Advanced Institute Of Science And Technology, priority 2018, dated 2020) can be followed below.

Assay type in all cases: cell-based, human
Assay [1] concerns senescent fibroblasts. As to the kind of experiment: SA β-gal activity assay (senescence-associated β-galactosidase kit). Here is the method: (§1) To determine whether the senescent cells subjected to the PDK1 inhibition are reverted to normal young cells, the PDX1 inhibitor BX-795 (Selleckchem) was applied to the senescent fibroblasts. Then, SA β-gal activity assay (senescence-associated β-galactosidase kit), wound healing assay, and fluorescence staining experiments were performed. Thus, the cell cycle change in the senescent cells based on PDK1 Inhibition was checked.
(§2) Specifically, cellular senescence was caused by exposing the cells for 7 days to culture conditions causing senescence, containing 100 ng/ml of IGF1, 100 ng/ml of doxorubicin, 10 % FBS, and 4.5 g/L of glucose. At this time, most of the cells turned senescent. Then, the PDK1 inhibitor was applied to the same culture condition for 7 days. Total 14 days of the application lapsed. […] Ki-67 expression was analyzed to evaluate the division activity of the cells and the results are shown in 4C.
(§3) In order to check whether the same result occurs when other PDK1 inhibitors are used, SA β-gal activity assay was performed in the same manner using PDK1 inhibitor 7. […] Therefore, the number of bluestained senescent cells as SA β-gal activity assay-positive and the total number of cells were counted using an optical microscope. […] In addition, fluorescence staining experiments were performed to check the expression of the cell proliferation marker ki-67.

Assay [2] relates to senescent fibroblasts. As to the kind of experiment: ki-67 fluorescence staining (cell division/proliferation marker). Here is the method:
as §1, §2, §3

In assay [3] the test system is senescent fibroblasts. As to the kind of experiment: wound healing assay. As to conditions: same senescence/inhibitor conditions; growth-condition medium for 7 days; FIG. 4B. Here is the method: To determine whether the senescent cells subjected to the PDK1 inhibition are reverted to normal young cells, the PDX1 inhibitor BX-795 (Selleckchem) was applied to the senescent fibroblasts. Then, SA β-gal activity assay (senescence-associated β-galactosidase kit), wound healing assay, and fluorescence staining experiments were performed. Thus, the cell cycle change in the senescent cells based on PDK1 Inhibition was checked. Specifically, cellular senescence was caused by exposing the cells for 7 days to culture conditions causing senescence, containing 100 ng/ml of IGF1, 100 ng/ml of doxorubicin, 10 % FBS, and 4.5 g/L of glucose. At this time, most of the cells turned senescent. Then, the PDK1 inhibitor was applied to the same culture condition for 7 days. Total 14 days of the application lapsed. Then, the cells were treated with growth media free of IGF1, doxorubicin, or PDK1 inhibitor. The wound healing assay was performed under the same conditions. Ki-67 expression was analyzed to evaluate the division activity of the cells and the results are shown in 4C.

Regarding `O=C(N[C@@H](COc1ccc2[nH]c(=O)[nH]c2c1)c1ccccc1)c1cccn(Cc2ccc(F)c(F)c2)c1=O` [PDK1 inhibitor 7], the “reduction of SA β-gal stained cells compared with the PDK1 inhibitor non-treated group” value with senescent fibroblasts [1] (percentage of blue-stained senescent cells counted by optical microscope, statistically significant, FIG. 5A, 5B) is on record as at least 40%. In the assay on senescent fibroblasts [2] (PDK1 inhibitor applied to senescent cells, FIG. 5C, 5D), the “increase of the number of ki-67 positive cells” value is recorded as at least 20%.

As for `O=C(NCCCNc1nc(Nc2cccc(NC(=O)N3CCCC3)c2)ncc1I)c1cccs1` [BX-795], in the assay on senescent fibroblasts [1] (senescence induced 7 days with IGF1 100 ng/ml + doxorubicin 100 ng/ml, PDK1 inhibitor applied 7 days, assay one day after change to growth media, FIG. 4A), the “SA β-gal as an indicator of senescent cells” value is recorded as “significantly reduced”. The “ki-67 staining, cell division” value in the assay with senescent fibroblasts [2] (cells treated with growth medium at 7 days after the drug application, FIG. 4C) is “cell division occurred in some of the cells”. Also, the “cell rejuvenation ability of the senescent cells (wound healing)” value with senescent fibroblasts [3] is “normalized”.
